Test results: patent US20260015350A1, “AZAQUINAZOLINE PAN-KRAS INHIBITORS” (Mirati Therapeutics, Inc., priority 2022, published 2026)

Legend:
KRas^G12R = target: T1, KRas^G12R (Homo sapiens, UniProt P01116, G12R); test: KRas binding assay (TR-FRET tracer displacement), KRas G12R
T1 construct: Biotinylated KRas (corresponding to amino acids 1-169, produced at Accelegan Inc.); biotin (biotinylated); purchased Accelegan Inc

KRas^G12D = target: T2, KRas^G12D (Homo sapiens, UniProt P01116, G12D); test: KRas binding assay (TR-FRET tracer displacement), KRas G12D
T2 construct: Biotinylated KRas (corresponding to amino acids 1-169, produced at Accelegan Inc.); biotin (biotinylated); purchased Accelegan Inc
T2 sequence (P01116 1-169 isoform P01116-2 G12D): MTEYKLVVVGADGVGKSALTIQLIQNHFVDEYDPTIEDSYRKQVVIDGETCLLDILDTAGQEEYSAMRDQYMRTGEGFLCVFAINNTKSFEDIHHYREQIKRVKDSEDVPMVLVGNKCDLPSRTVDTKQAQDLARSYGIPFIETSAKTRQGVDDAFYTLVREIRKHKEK

[1] = tested on: KRas-mediated phosphorylation of ERK in AsPC-1 cells; test: Inhibition of KRas-mediated phosphorylation of ERK (Cisbio HTRF pERK), AsPC-1 cells; type: cell-based; conditions: Homo sapiens, ASPC1, AsPC-1 cells; HTRF pERK
Procedure, shortened: (§1)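 A cell-based HTRF pERK assay: ten-point, threefold titrations beginning at 10 uM were applied for 3 hrs, with 0.2 uM Trametinib wells as the minimum control. Cells were lysed cold, and lysate was incubated with the antibody pair for 2 hrs before reading.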

KRas^G12V = target: T3, KRas^G12V (Homo sapiens, UniProt P01116, G12V); test: KRas binding assay (TR-FRET tracer displacement), KRas G12V
T3 construct: Biotinylated KRas (corresponding to amino acids 1-169, produced at Accelegan Inc.); biotin (biotinylated); purchased Accelegan Inc
T3 sequence (P01116 1-169 isoform P01116-2 G12V): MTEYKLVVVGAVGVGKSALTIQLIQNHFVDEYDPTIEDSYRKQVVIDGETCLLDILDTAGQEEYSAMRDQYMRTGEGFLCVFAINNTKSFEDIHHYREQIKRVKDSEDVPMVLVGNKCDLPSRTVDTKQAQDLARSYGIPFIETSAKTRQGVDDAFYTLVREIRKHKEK

[2] = tested on: KRas-mediated phosphorylation of ERK in H727 cells; test: Inhibition of KRas-mediated phosphorylation of ERK (Cisbio HTRF pERK), H727 cells; type: cell-based; conditions: Homo sapiens, NCI-H727, H727 cells; HTRF pERK
Procedure, shortened: as §1

T1 sequence (P01116 1-169 isoform P01116-2 G12R): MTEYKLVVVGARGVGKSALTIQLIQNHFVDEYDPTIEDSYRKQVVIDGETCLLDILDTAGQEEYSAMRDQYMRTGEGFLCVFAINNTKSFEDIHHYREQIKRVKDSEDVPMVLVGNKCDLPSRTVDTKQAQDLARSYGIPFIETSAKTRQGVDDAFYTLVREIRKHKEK

| SMILES | IC50 (KRas^G12R) | IC50 (KRas^G12D) | IC50 [1] | IC50 (KRas^G12V) | IC50 [2] |
| --- | --- | --- | --- | --- | --- |
| CCc1c(F)ccc2cc(O)cc(-c3ncc4c(NCC5CNC(=O)CO5)nc(OC[C@@]56CCCN5C[C@H](F)C6)nc4c3F)c12 (stereo partly drawn) [Example 556, 6-(((7-(8-ethyl-7-fluoro-3-hydroxynaphthalen-1-yl)-8-fluoro-2-(((2R,7aS)-2-fluorotetrahydro-1H-pyrrolizin-7a(5H)-yl)methoxy)pyrido[4,3-d]pyrimidin-4-yl)amino)methyl) morpholin-3-one] | < 2 nM | 10 nM | > 10000 nM | 2 nM | 2510 nM |
| CCc1c(F)ccc2cc(O)cc(-c3ncc4c(N5CCC[C@@](C)(O)C5)nc(OCC5(CN(C)C)CC5CO)nc4c3F)c12 (stereo partly drawn) [Example 813, (3R)-1-(2-((1-((dimethylamino)methyl)-2-(hydroxymethyl)cyclopropyl)methoxy)-7-(8-ethyl-7-fluoro-3-hydroxynaphthalen-1-yl)-8-fluoropyrido[4,3-d]pyrimidin-4-yl)-3-methylpiperidin-3-ol] | 4 nM | < 2 nM | 1080 nM | < 2 nM | 2550 nM |
| CCc1c(F)ccc2cc(O)cc(-c3ncc4c(N5CCCC6(CCS6(=O)=O)C5)nc(OC[C@@]56CCCN5C[C@H](F)C6)nc4c3F)c12 (stereo partly drawn) [Example 628, 6-(7-(8-ethyl-7-fluoro-3-hydroxynaphthalen-1-yl)-8-fluoro-2-(((2R,7aS)-2-fluorohexahydro-1H-pyrrolizin-7a-yl)methoxy)pyrido[4,3-d]pyrimidin-4-yl)-1-thia-6-azaspiro[3.5]nonane 1,1-dioxide] | 180 nM | 78 nM | 3260 nM | 107 nM | 2810 nM |
| CCc1c(F)ccc2cc(O)cc(-c3ncc4c(N5CCCC6(C5)NC(=O)NC6=O)nc(N5CC(N)C5)nc4c3F)c12 (centres unmarked) [Example 528, 7-(2-(3-aminoazetidin-1-yl)-7-(8-ethyl-7-fluoro-3-hydroxynaphthalen-1-yl)-8-fluoropyrido[4,3-d]pyrimidin-4-yl)-1,3,7-triazaspiro[4.5]decane-2,4-dione] | 3 nM | 8 nM | > 10000 nM | 3 nM | > 10000 nM |
| CCc1c(F)ccc2cc(O)cc(-c3ncc4c(N5CCC(CC6CCOC6)C5)nc(OC[C@@]56CCCN5C[C@H](F)C6)nc4c3F)c12 (stereo partly drawn) [Example 596, 5-ethyl-6-fluoro-4-(8-fluoro-2-(((2R,7aS)-2-fluorohexahydro-1H-pyrrolizin-7a-yl)methoxy)-4-(3-((tetrahydrofuran-3-yl)methyl)pyrrolidin-1-yl)pyrido[4,3-d]pyrimidin-7-yl)naphthalen-2-ol] | 434 nM | 805 nM | > 10000 nM | 94 nM | 2450 nM |
| CCc1c(F)ccc2cc(O)cc(-c3ncc4c(N5CCC6(CNC(=O)OC6)C5)nc(OC[C@@]56CCCN5C[C@H](F)C6)nc4c3F)c12 (stereo partly drawn) [Example 598, 2-(7-(8-ethyl-7-fluoro-3-hydroxynaphthalen-1-yl)-8-fluoro-2-(((2R,7aS)-2-fluorotetrahydro-1H-pyrrolizin-7a(5H)-yl)methoxy)pyrido[4,3-d]pyrimidin-4-yl)-7-oxa-2,9-diazaspiro[4.5]decan-8-one] | 66 nM | 820 nM | > 10000 nM | 84 nM | > 10000 nM |
| CCc1c(F)ccc2cc(O)cc(-c3ncc4c(NCc5cc(C(=O)N(C)C)n(CC6CC(O)C6)n5)nc(OC[C@@]56CCCN5C[C@H](F)C6)nc4c3F)c12 (stereo partly drawn) [Example 688, 3-(((7-(8-ethyl-7-fluoro-3-hydroxynaphthalen-1-yl)-8-fluoro-2-(((2R,7aS)-2-fluorohexahydro-1H-pyrrolizin-7a-yl)methoxy)pyrido[4,3-d]pyrimidin-4-yl)amino)methyl)-1-((3-hydroxycyclobutyl)methyl)-N,N-dimethyl-1H-pyrazole-5-carboxamide] | 160 nM | 357 nM | > 10000 nM | 42 nM | > 10000 nM |
| CCc1c(F)ccc2cc(O)cc(-c3ncc4c(N5CCCC6(C5)NC(=O)NC6=O)nc(N5CC(C)(N)C5)nc4c3F)c12 (centres unmarked) [Example 531, 7-(2-(3-amino-3-methylazetidin-1-yl)-7-(8-ethyl-7-fluoro-3-hydroxynaphthalen-1-yl)-8-fluoropyrido[4,3-d]pyrimidin-4-yl)-1,3,7-triazaspiro[4.5]decane-2,4-dione] | < 2 nM | 5 nM | > 10000 nM | < 2 nM | > 10000 nM |
| CCc1c(F)ccc2cc(O)cc(-c3ncc4c(N5CC(C)(O)C6CC5C6)nc(OC[C@@]56CCCN5C[C@H](F)C6)nc4c3F)c12 (stereo partly drawn) [Example 893, 2-(7-(8-ethyl-7-fluoro-3-hydroxynaphthalen-1-yl)-8-fluoro-2-(((2R,7aS)-2-fluorotetrahydro-1H-pyrrolizin-7a(5H)-yl)methoxy)pyrido[4,3-d]pyrimidin-4-yl)-4-methyl-2-azabicyclo[3.1.1]heptan-4-ol] | 40 nM | 92 nM | 2100 nM | 43 nM | 3020 nM |
| CCc1c(F)ccc2cc(O)cc(-c3ncc4c(NCc5cc(C(=O)N(C)C)nn5[C@H]5C[C@@H](O)C5)nc(OC[C@@]56CCCN5C[C@H](F)C6)nc4c3F)c12 [Example 678, 5-(((7-(8-ethyl-7-fluoro-3-hydroxynaphthalen-1-yl)-8-fluoro-2-(((2R,7aS)-2-fluorohexahydro-1H-pyrrolizin-7a-yl)methoxy)pyrido[4,3-d]pyrimidin-4-yl)amino)methyl)-1-(cis-3-hydroxycyclobutyl)-N,N-dimethyl-1H-pyrazole-3-carboxamide] | 16 nM | 89 nM | > 10000 nM | 11 nM | > 10000 nM |
| CCc1c(F)ccc2cc(O)cc(-c3ncc4c(N5CC6CCC(CCC(=O)NC)(C6)C5)nc(OC[C@@]56CCCN5C[C@H](F)C6)nc4c3F)c12 (stereo partly drawn) [Example 909, 3-(3-(7-(8-ethyl-7-fluoro-3-hydroxynaphthalen-1-yl)-8-fluoro-2-(((2R,7aS)-2-fluorotetrahydro-1H-pyrrolizin-7a(5H)-yl)methoxy)pyrido[4,3-d]pyrimidin-4-yl)-3-azabicyclo[3.2.1]octan-1-yl)-N-methylpropanamide] | 7 nM | 24 nM | 5160 nM | 7 nM | 1310 nM |
| CCc1c(F)ccc2cc(O)cc(-c3ncc4c(N5CCC(Cc6cncn6C)C5)nc(OC[C@@]56CCCN5C[C@H](F)C6)nc4c3F)c12 (stereo partly drawn) [Example 829, 5-ethyl-6-fluoro-4-(8-fluoro-2-(((2R,7aS)-2-fluorotetrahydro-1H-pyrrolizin-7a(5H)-yl)methoxy)-4-(3-((1-methyl-1H-imidazol-5-yl)methyl)pyrrolidin-1-yl)pyrido[4,3-d]pyrimidin-7-yl)naphthalen-2-ol] | 460 nM | 939 nM | > 10000 nM | 195 nM | > 10000 nM |
| CCc1c(F)ccc2cc(O)cc(-c3ncc4c(N[C@@H]5C[C@@H](C)S(=O)(=O)[C@@H](C)C5)nc(OC[C@@]56CCCN5C[C@H](F)C6)nc4c3F)c12 [Example 630, (2R,4s,6S)-4-((7-(8-ethyl-7-fluoro-3-hydroxynaphthalen-1-yl)-8-fluoro-2-(((2R,7aS)-2-fluorohexahydro-1H-pyrrolizin-7a-yl)methoxy)pyrido[4,3-d]pyrimidin-4-yl)amino)-2,6-dimethyltetrahydro-2H-thiopyran 1,1-dioxide] | 34 nM | 796 nM | > 10000 nM | 93 nM | 4420 nM |
| CCc1c(F)ccc2cc(O)cc(-c3ncc4c(N5CCCC(C6CCC(=O)N6)C5)nc(OC[C@@]56CCCN5C[C@H](F)C6)nc4c3F)c12 (stereo partly drawn) [Example 620, 5-(1-(7-(8-ethyl-7-fluoro-3-hydroxynaphthalen-1-yl)-8-fluoro-2-(((2R,7aS)-2-fluorohexahydro-1H-pyrrolizin-7a-yl)methoxy)pyrido[4,3-d]pyrimidin-4-yl)piperidin-3-yl)pyrrolidin-2-one] | 376 nM | 495 nM | 9680 nM | 248 nM | 6800 nM |
| CCc1c(F)ccc2cc(O)cc(-c3ncc4c(NC5CCONC5)nc(OC[C@@]56CCCN5C[C@H](F)C6)nc4c3F)c12 (stereo partly drawn) [Example 542, 4-(4-((1,2-oxazinan-4-yl)amino)-8-fluoro-2-(((2R,7aS)-2-fluorohexahydro-1H-pyrrolizin-7a-yl)methoxy)pyrido[4,3-d]pyrimidin-7-yl)-5-ethyl-6-fluoronaphthalen-2-ol] | 6 nM | 60 nM | > 10000 nM | 9 nM | 2330 nM |
| CCc1c(F)ccc2cc(O)cc(-c3ncc4c(NCc5cc(C(=O)N(C)C)nn5[C@H]5C[C@H](O)C5)nc(OC[C@@]56CCCN5C[C@H](F)C6)nc4c3F)c12 [Example 682, 5-(((7-(8-ethyl-7-fluoro-3-hydroxynaphthalen-1-yl)-8-fluoro-2-(((2R,7aS)-2-fluorotetrahydro-1H-pyrrolizin-7a(5H)-yl)methoxy)pyrido[4,3-d]pyrimidin-4-yl)amino)methyl)-1-(trans-3-hydroxycyclobutyl)-N,N-dimethyl-1H-pyrazole-3-carboxamide] | 541 nM | 710 nM | > 10000 nM | 192 nM | > 10000 nM |
